Laboratory results published in ChEMBL document CHEMBL1147077, “Induced-fit tightens pleuromutilins binding to ribosomes and remote interactions enable their selectivity” (Proc Natl Acad Sci U S A, 2007).

What was measured:
[1] = Displacement of [3H]SB-2587891 from Escherichia coli ribosomes; format: subcellular, Ribosome
Staphylococcus aureus = experiment: Antimicrobial activity against Staphylococcus aureus; format: functional
Streptococcus pyogenes = experiment: Antimicrobial activity against Streptococcus pyogenes; format: functional

| SMILES | Kd [1] [nM] | MIC (Staphylococcus aureus) [µg/mL] | MIC (Streptococcus pyogenes) [µg/mL] |
| --- | --- | --- | --- |
| C=C[C@]1(C)C[C@@H](OC(=O)CSC2CCNCC2)[C@]2(C)[C@H](C)CC[C@]3(CCC(=O)[C@H]32)[C@@H](C)[C@@H]1O | 7.5 | – | – |
| C=C[C@]1(C)C[C@@H](OC(=O)NC(=O)c2ccc(N)nn2)[C@]2(C)[C@H](C)CC[C@]3(C[C@H](O)C(=O)[C@H]32)[C@@H](C)[C@@H]1O | 11.1 | – | – |
| C=C[C@]1(C)C[C@@H](OC(=O)CS[C@@H]2C[C@H]3CC[C@@H](C2)N3C)[C@]2(C)[C@H](C)CC[C@]3(CCC(=O)[C@H]32)[C@@H](C)[C@@H]1O [RETAPAMULIN] | 2 | ≤ 0.5 | ≤ 0.5 |
